Assay results: US20060014723A1, “Anti-parasitic uses of borinic acid complexes” (priority 2004, published 2006)
Converted amounts (≈) assume the structure as drawn.

Columns and labels:
[1] = system: Leishmania donovani strain MHOM/ET1671L82; assay: Leishmaniasis in vitro screening model (axenic amastigotes, Alamar Blue); assay type: cell-based
Procedure: The Leishmania donovani strain MHOM/ET1671L82 (obtained from Dr. S. Croft, London School of Hygiene and Tropical Medicine) is used. The strain is maintained in the Syrian Golden hamster. Amastigotes are collected from the spleen of an infected hamster. Amastigotes are grown in axenic culture at 37° C. in SM medium (Cunningham I., J. Protozoal. 24:325-329, 1977) at pH 5.4 supplemented with 10% heat-inactivated fetal bovine serum (FBS) under an atmosphere of 5% CO2 in air.
(§1) After use the stocks are kept at −20° C. For the assays, the compound is further diluted to the appropriate concentration using complete medium.
Assays are performed in 96-well flat-bottom microtiter plates (Costar, Corning Inc.), each well containing 100 μl of culture medium with 105 amastigotes from axenic culture with or without a serial drug dilution. Concentration of amastigotes is determined in a CASY cell analyzing system (Scharfe System, Reutlingen, Germany). Before the amastigotes are counted, the parasite culture is passed twice through a 22-gauge needle to break up clusters of amastigotes.
The highest concentration for the test compounds is 90 μg/mL. Seven 3-fold dilutions are used, covering a range from […]. Each drug is tested in duplicate. Active compounds are tested twice for confirmation. After 72 hours of incubation, the plates are inspected under an inverted microscope to assure growth of the controls and sterile conditions.
Ten μL of Alamar Blue (12.5 mg resazurin dissolved in 100 mL distilled water) are then added to each well and the plates are incubated for another 2 hours. Then the plates are read with a Spectramax GEMINI XS microplate fluorometer (Molecular Devices Cooperation, Sunnyvale, Calif., USA) using an excitation wave length of 536 nm and an emission wave length of 588 nm.
Data are analyzed using the microplate reader software Softmax Pro (Molecular Devices Cooperation, Sunnyvale, Calif., USA). Decrease of fluorescence (i.e. inhibition) is expressed as percentage of the fluorescence of control cultures and plotted against the drug concentrations. The IC50 value is calculated from the sigmoidal inhibition curve by the software program.

[2] = system: T. b. rhodesiense STIB 900; assay: African sleeping sickness in vitro screening model (Alamar Blue); assay type: cell-based, Trypanosoma brucei rhodesiense; conditions: for IC50: Trypanosoma brucei
Procedure: Bloodstream from trypomastigotes of the strains (a) and (c) are maintained in Minimal Essential Medium (MEM) with Earle's salts supplemented according to Baltz, et al., (EMBO J. 4:1273-1277, 1985) with 25 mM N-2-hydroxyethylpiperazine-N′-2-ethane-sulphonic acid (HEPES), 1 g/L additional glucose, 1% MEM non-essential amino acids (100×), 0.2 mM 2-mercaptoethanol, 2 mM sodium pyruvate, 0.1 mM hypoxanthine and 15% heat-inactivated horse serum.
All cultures and assays are conducted at 37° C. under an atmosphere of 5% CO2 in air.
After use the stocks are kept at −20° C. For the assays, the compound is further diluted in serum-free culture medium and finally to the appropriate concentration in complete medium without hypoxanthine.
Assays are performed in 96-well microtiter plates, each well containing 100 μL of culture medium with 8×10^3 bloodstream forms with or without a serial drug dilution. The highest concentration for the test compounds is 90 μg/mL. Seven 3-fold drug dilutions are used, covering a range from 90 μg/mL to 0.123 μg/mL. Each drug is tested in duplicate. Active compounds are tested twice for confirmation. The final result is the mean of the four individual IC50 values. After 72 hrs of incubation, the plates are inspected under an inverted microscope to assure growth of the controls and sterile conditions.
Ten μL of Alamar Blue (12.5 mg resazurin dissolved in 100 mL distilled water) are now added to each well and the plates are incubated for another 2 hours. Then the plates are read with a Spectramax GEMINI XS microplate fluorometer (Molecular Devices Cooperation, Sunnyvale, Calif., USA) using an excitation wavelength of 536 nm and an emission wave length of 588 nm.
IC50 values are determined using the microplate reader software Softmax Pro (Molecular Devices Cooperation, Sunnyvale, Calif., USA).

[3] = system: Trypanosoma cruzi Tulahuen C2C4 strain; assay: Chagas disease in vitro screening model (beta-galactosidase strain in L-6 cells); assay type: cell-based
Procedure: Trypanosoma cruzi Tulahuen C2C4 strain, containing the β-galactosidase (Lac Z) gene (Buckner et al., Antimicrob. Agents Chemother 40:2592-2597, 1996) is used for this study.
The infective amastigote and trypomastigote stages are cultivated in L-6 cells (a rat skeletal myoblast cell line) in RPMI 1640 medium supplemented with 2 mM L-glutamine and 10% heat-inactivated fetal bovine serum in 12.5 cm^2 tissue culture flasks. Amastigotes develop intracellularly, differentiate into trypomastigotes, and leave the host cell. These trypomastigotes infect new L-6 cells and are the stages used to initiate an infection in the assay. All cultures and assays are conducted at 37° C. under an atmosphere of 5% CO2 in air.
as §1
Assays are performed in sterile 96-well microtiter plates, each well containing 100 μl medium with 2×10^3 L-6 cells. After 24 hours, […] of a trypanosome suspension containing 5×10^3 trypomastigote bloodstream forms from culture are added to the wells. Forty-eight hours later, the medium is removed from the wells and replaced by […] fresh medium, with or without a serial drug dilution. At this point the L-6 cells should be infected with amastigotes and no free trypomastigotes should be in the medium. Seven 3-fold drug dilutions are used, covering a range from 90 μg/mL to 0.123 μg/mL. Each drug is tested in duplicate. Active compounds are tested twice for confirmation. After 96 hours of incubation the plates are inspected under an inverted microscope to assure growth of the controls and sterility.
Then the substrate CPRG/Nonidet (50 μl) is added to all wells. A colour reaction will become visible within 2-6 hours and can be read photometrically at 540 nm. Data are transferred into a graphics program (e.g., EXCEL), sigmoidal inhibition curves determined and IC50 values calculated.

Row | SMILES | L. donovani IC50 [1] [µg/mL] | T. b. rhodesiense IC50 [2] [µg/mL] | T. cruzi IC50 [3] [µg/mL] | IC50 ([1]; Leishmania donovani, read-out: L. donovani IC50) [µg/mL] | IC50 [2] [µg/mL] | IC50 ([3]; Trypanosoma cruzi, TULAHUEN, L6, read-out: T. cruzi IC50) [µg/mL]
1 | Cc1cc(Cl)ccc1B(Oc1cccc2cccnc12)c1ccc(Cl)cc1C [Compound 109] | 0.75 | 0.405 | 4.35 | – | – | –
2 | CN(C)Cc1ccc(B(Oc2cccc3cccnc23)c2ccc(F)c(F)c2)cc1 [Compound 110] | 0.61 | 0.38 | 4.7 | – | – | –
3 | N#Cc1cccc(B(OC(=O)c2ncccc2O)c2cccnc2)c1 [Compound 133] | 2.2 | 0.86 | 10.4 | – | – | –
4 | CN(C)CCOc1ccc(B(Oc2cccc3cccnc23)c2ccc(Cl)cc2)cc1 [Compound 104] | 0.71 | 1.24 | 4.3 | – | – | –
5 | C=CB(Oc1cccc2cccnc12)c1cccnc1 [Compound 94] | 0.55 | 0.495 | 2.8 | – | – | –
6 | Fc1ccc(B(Oc2c(Cl)cc(Cl)c3cccnc23)c2ccc(Cl)cc2)cc1 [Compound 92] | 0.052 | 1.1 | 2.55 | – | – | –
7 | O=C(OB(c1ccc(Cl)cc1)c1ccc(Cl)cc1)c1cccc(O)n1 [Compound 132] | 14.1 | 45.7 | 23.4 | – | – | –
8 | C=CB(Oc1cccc2cccnc12)c1ccc(OC)nc1 [Compound 100] | 0.33 | 0.305 | 3.8 | – | – | –
9 | C=CB(Oc1cccc2cccnc12)c1ccc(F)nc1 [Compound 101] | 0.34 | 0.3 | 3.95 | – | – | –
10 | CN(C)Cc1ccc(B(Oc2cccc3cccnc23)c2ccc(Cl)cc2)cc1.O=C(O)/C=C/C(=O)O [Compound 106] | 0.69 | 0.385 | 4.25 | – | – | –
11 | CN(C)Cc1ccc(B(Oc2cccc3cccnc23)c2ccc(Cl)cc2)cc1.Cl [Compound 105] | 0.72 | 0.41 | 4.2 | – | – | –
12 | C=CB(Oc1cccc2cccnc12)c1ccc(CN(C)C)cc1 [Compound 119] | 0.36 | 0.51 | 3.8 | – | – | –
13 | N#Cc1ccc(B(Oc2cccc3cccnc23)c2ccc(C#N)cc2)cc1 [Compound 88] | 0.76 | 0.41 | 1.385 | – | – | –
14 | Fc1cccc(B(Oc2cccc3cccnc23)c2ccc(Cl)c(Cl)c2)c1 [Compound 46, (3,4-Dichlorophenyl)(3-fluorophenyl)borinic acid quinolin-8-yl ester] | – | – | – | 0.44 (≈ 1.11 µM) | 0.51 (≈ 1.29 µM) | 0.84 (≈ 2.12 µM)
15 | N#Cc1cccc(B(Oc2cccc3cccnc23)c2cc(F)cc(C(F)(F)F)c2)c1 [Compound 121] | 0.53 | 0.43 | 4.95 | – | – | –
16 | Fc1ccc(B(Oc2cccc3cccnc23)c2ccc(Cl)cc2)cc1F [Compound 114] | 0.71 | 0.41 | 4 | – | – | –
17 | Cc1ccc(B(Oc2cccc3cccnc23)c2ccco2)cc1Cl [Compound 103] | 0.35 | 0.38 | 4.4 | – | – | –
18 | CSc1cccc(B(Oc2cccc3cccnc23)c2cccc(Cl)c2)c1 [Compound 107] | 0.42 | 0.365 | 4.1 | – | – | –
19 | C=CB(Oc1cccc2cccnc12)c1c(C)noc1C [Compound 118] | 0.44 | 0.265 | 3.5 | – | – | –
20 | N#Cc1cccc(B(Oc2cccc3cccnc23)c2cc(F)ccc2F)c1 [Compound 113] | 0.57 | 0.39 | 4.25 | – | – | –
21 | C=CB(Oc1cccc2cccnc12)c1ccco1 [Compound 117] | 0.63 | 0.295 | 3.65 | – | – | –
22 | CC1(C)COC(c2cccc(B(Oc3cccc4cccnc34)c3cccc(Cl)c3)c2)=N1 [Compound 18, (3-Chlorophenyl)[3-(4,5-dihydro-4,4-dimethyloxazol-2yl)phenyl]borinic acid quinolin-8-yl ester] | – | – | – | – | 1.7 (≈ 3.86 µM) | –
23 | N#Cc1cccc(B(Oc2cccc3cccnc23)c2ccc(F)c(F)c2)c1 [Compound 95] | 0.61 | 0.435 | 2.95 | – | – | –
24 | CN(C)Cc1ccc(B(Oc2cccc3cccnc23)c2cccc(C#N)c2)cc1.O=C(O)/C=C/C(=O)O [Compound 112] | 0.98 | 0.44 | 4.2 | – | – | –
25 | Cc1ccc(B(OC(=O)c2ncccc2N)c2ccc(C)c(Cl)c2)cc1Cl [Compound 129] | 1.6 | 4.4 | 0.855 | – | – | –
